Results as given in US8575188B2 (priority 2009, dated 2013).
Read-outs that look alike come from different tables or passages of the source.

Legend:
[1] = tested on: bone marrow progenitor cells; experiment: Bone marrow progenitor cell clonogenic assay (CFU-GM), human; conditions: for IC50: read-out: Human CFU-GM (IC50 nM) THLD
Experimental: (§1) A clonogenic assay was performed using bone marrow progenitor cells derived from the blood of mice and humans.

[2] = tested on: bone marrow progenitor cells; experiment: Bone marrow progenitor cell clonogenic assay (CFU-GM), mouse; conditions: for IC50: read-out: Mouse CFU-GM (IC50 nM) THLD
Experimental: as §1

[3] = tested on: human melanoma cell line SKMEL-28; experiment: Antiproliferation assay, 72 hrs under air, Alamar Blue; type: cell-based
[4] = tested on: human prostate cancer cell line PC-3; experiment: as above; type: cell-based; conditions: read-out: PC3 IC50
[5] = tested on: human colon cancer cell line HT-29; experiment: as above; type: cell-based; conditions: read-out: HT29 IC50
[6] = tested on: human melanoma cell line SKMEL2; experiment: as above; type: cell-based; conditions: read-out: SKMEL-2 IC50
[7] = tested on: human prostate cancer cell line LNCap; experiment: as above; type: cell-based
[8] = tested on: human non small cell lung cancer cell line H460; experiment: Antiproliferation (cytotoxicity) assay, 72 hrs under air, Alamar Blue; type: cell-based; conditions: read-out: IC50
[9] = tested on: human melanoma cell line A375; experiment: Antiproliferation assay, 72 hrs under air, Alamar Blue; type: cell-based
[10] = tested on: human melanoma cell line MAMLE-3M; experiment: as above; type: cell-based
[11] = tested on: human prostate cancer cell line DU145; experiment: as above; type: cell-based
[12] = tested on: BCRP, which over expressed the breast cancer resistance protein; experiment: Efflux pump drug resistance, antiproliferation assay, BCRP over expressing line; conditions: for 5d BCRP/pcDNA / 3d BCRP/pcDNA: ratio of IC50s, BCRP over expressing versus parent line; for 5d BCRP/pcDNA: 5 days; for 3d BCRP/pcDNA: 3 days
Experimental: (§2) The compounds were screened for cytotoxicity using human non small cell lung cancer cell line H460. […]
(§3) Cellular drug resistance was determined using the antiproliferation assay described above.

[13] = tested on: human ovarian cancer cell line IGROV-1; experiment: Antiproliferation assay, 72 hrs under air, Alamar Blue; type: cell-based
[14] = tested on: pcDNA; experiment: Efflux pump drug resistance, antiproliferation assay, parent line; type: cell-based; conditions: air
Experimental: as §2, §3

[15] = tested on: H69 small cell lung cancer line; experiment: as above; type: cell-based; conditions: air
Experimental: as §2, §3

[16] = tested on: DX5, which over expresses the MDR 1 efflux pump; experiment: Efflux pump drug resistance, antiproliferation assay, MDR 1 over expressing line; type: cell-based; conditions: air
Experimental: as §2, §3

[17] = tested on: Messa ovarian carcinoma cell line; experiment: Efflux pump drug resistance, antiproliferation assay, parent line; type: cell-based; conditions: Homo sapiens, MES-SA, air
Experimental: […] Cells were treated with test compounds at various concentrations under air for 72 hrs, and then cell viability and proliferation were assessed by Alamar Blue staining.
as §3

[18] = tested on: MRP1 over expressing H69AR line; experiment: Efflux pump drug resistance, antiproliferation assay, MRP1 over expressing line; type: cell-based; conditions: Homo sapiens, air
Experimental: as §2, §3

[19] = tested on: IGROV1 human ovarian cancer cells; experiment: Xenograft model of metastatic ovarian cancer (i.p.), survival; conditions: IGROV1 i.p., median survival treated / vehicle times 100; PO, QD × 5/wk, 4 weeks, 150 mg/Kg
Experimental: One arm was dosed with only vehicle and the results used for the efficacy calculations. […] A xenograft model of metastatic ovarian cancer was set up by the intraperitoneal (i.p) injection of 3×10^6 IGROV1 human ovarian cancer cells in nude mice. Mice were evaluated twice a week for morbidity and mortality. Kaplan-Meier survival curves were plotted.

[20] = tested on: human colon cancer HT-29; experiment: Xenograft model, subcutaneous, tumor growth inhibition and body weight loss; conditions: for TGI (%): HT29, PO, QD × 5/wk; for Max. BWL (%): mouse, in vivo, po
Experimental: (§4) The first three models were produced by subcutaneous implantation of the appropriate number of cells into the flank of the animals. When tumor size was approximately 150 mm^3, animals were randomized into groups of 10 mice each for dosing. One arm was dosed with only vehicle and the results used for the efficacy calculations. […] TGI=(1−T/C) %. T/C ratio was calculated as T/C=(Tn−Ti)/(Cn−Ci), where Tn is tumor volume in treatment group on Day n, and Ti is the initial tumor volume in the treatment group. Cn is the tumor volume of the vehicle group on the last day of measurement. Ci is the initial tumor volume in the vehicle control group. Day n is the last measurement taken when all the animals in the vehicle group were not yet euthanized. Animals were euthanized when tumor volumes grew larger than 2000 mm^3.

[21] = tested on: human non small cell lung cancer H-460; experiment: as above; conditions: for TGI (%): H460, PO, QD × 5/wk, 2 weeks; for Max. BWL (%): mouse, in vivo, po
Experimental: as §4

[22] = tested on: human prostate cancer PC-3; experiment: as above; conditions: for TGI (%): PC3, PO, QD × 5/wk, 2 weeks; for Max. BWL (%): mouse, in vivo, po
Experimental: as §4

[23] = Bone marrow progenitor cell clonogenic assay (CFU-GM), human; conditions: human
Experimental: as §1

[24] = Bone marrow progenitor cell clonogenic assay (CFU-GM), mouse; conditions: mouse
Experimental: as §1

[25] = Brain penetration, AUC in brain versus AUC plasma; conditions: mouse
Experimental: Certain compounds of the invention were assessed for brain penetration by comparing the AUC for plasma exposure versus the AUC in brain.

[26] = In vivo pharmacokinetics, oral gavage; conditions: CD, mouse, in vivo, po; for AUC / Cmax: 50 mg/kg
Experimental: The data normalized to a 50 mg/kg dose are shown below (compounds were dosed at either 25 or 50 mg/kg).

[27] = tested on: H46O cells; experiment: Selective hypoxic activation of 14-nitro prodrugs in cell culture; type: cell-based, human; conditions: TH1332 at 5 micromolar, 24 hour
Experimental: H46O cells were grown to a confluent monolayer and then the 14-nitro TH1332 prodrug was added to the media at 5 micromolar concentration. Incubations were done for 24 hour either under air or nitrogen (hypoxia), media and cells were recovered, sonicated and soluble extracts were isolated by acetonitrile precipitation of proteins. The level of amino TH1338 active cytotoxin were quantitated by liquid chromotagraphy mass spectra analysis. The equivalent of 70 nanomolar TH1338 was produced under hypoxia with undetectable levels being produced under air (less than 5 nanomolar).
The analogous experiment was preformed using 1 micromolar concentration of the 14-nitro derivative TH1431. After 24 hr, 180 nanomolar of the 14 amino TH1499 was produced under nitrogen with undetectable levels produced under air (less than 5 nanomolar).

[28] = 120 h, 5 days, read-out: Air 5d pcDNA prol. IC50
[29] = 120 h, 5 days, read-out: Air 5d H69 prol. IC50
[30] = Homo sapiens, NCI-H460, H460, inhibition of proliferation, 72 hrs under air
[31] = MDR1, 120 h, 5 days, read-out: Air 5d DX5 prol. IC50
[32] = 120 h, 5 days, read-out: Air 5d MESSA prol. IC50
[33] = 120 h, 5 days, read-out: Air 5d H69ar (MRP1) prol. IC50
[34] = 120 h, read-out: Air 5d BCRP prol. IC50 nM, air, 5 days
[35] = 72 h, 3 days, read-out: Air 3d pcDNA prol. IC50
[36] = MDR1, 72 h, 3 days, read-out: Air 3d DX5 prol. IC50
[37] = 72 h, 3 days, read-out: Air 3d MESSA prol. IC50
[38] = 72 h, read-out: Air 3d BCRP prol. IC50 nM, air, 3 days
[39] = 72 h, 3 days, read-out: Air 3d H69 prol. IC50
[40] = 72 h, 3 days, read-out: Air 3d H69ar (MRP1) prol. IC50

SMILES	IC50 [15, 29] [nM]	IC50 [8, 30] [nM]	IC50 [16, 31] [nM]	IC50 [17, 32] [nM]	IC50 [18, 33] [nM]	IC50 [14, 35] [nM]	IC50 [16, 36] [nM]	IC50 [17, 37] [nM]	IC90 [23] [nM]	IC50 ([1]; Homo sapiens, CFU-GM) [nM]	IC90 [24] [nM]	IC50 ([2]; Mus musculus, CFU-GM) [nM]	half-life [26] [min]	AUC [26] [ng·h/mL]	Cmax [26] [ng/mL]	IC50 [12, 38] [nM]	3d BCRP/pcDNA [12]	IC50 [15, 39] [nM]	IC50 [18, 40] [nM]	further results
CC[C@@]1(O)C(=O)OCc2c1cc1n(c2=O)Cc2cc3c(N)cccc3nc2-1 [9-amino camptothecin, reference compound]	–	–	–	–	–	–	–	–	–	–	–	–	–	–	–	–	–	–	–	IC50 ([1]; human bone marrow progenitor cells, clonogenic assay): 1.2 nM; IC90 ([1]; read-out: Human CFU-GM (IC90 nM) THLD, IC90, human bone marrow progenitor cells, clonogenic assay): 8 nM; IC50 ([2]; mouse bone marrow progenitor cells, clonogenic assay): 90 nM; IC90 ([2]; read-out: Mouse CFU-GM (IC90 nM) THLD, IC90, mouse bone marrow progenitor cells, clonogenic assay): 700 nM
CCc1c2c(nc3ccc(O)cc13)-c1cc3c(c(=O)n1C2)COC(=O)[C@]3(O)CC [SN-38, reference compound]	–	–	–	–	–	–	–	–	–	–	–	–	–	–	–	–	–	–	–	IC50 [3]: 10000 nM; IC50 [4]: 4 nM; IC50 [5]: 224 nM; IC50 [6]: 100 nM; IC50 [7]: 9 nM; IC50 [8]: 54 nM; IC50 [9]: 4 nM; IC50 [10]: 200 nM; IC50 [1]: 1.3 nM; IC50 [11]: 4 nM; IC50 [2]: 110 nM; ratio BCRP over expressing line versus the parent cell line ([12]; not told): > 220; IC50 [13]: 30 nM
CC[C@@]1(O)C(=O)OCc2c1c([N+](=O)[O-])c1n(c2=O)Cc2cc3ccccc3nc2-1 [TH1317]	933	> 1000	> 500	> 500	1320	–	–	–	–	–	–	–	–	–	–	–	–	–	–	IC50 [14, 28]: 57 nM; IC50 [12, 34]: 82 nM; 5d BCRP/pcDNA [12]: 1.4386
CCc1c2c(nc3ccccc13)-c1c([N+](=O)[O-])c3c(c(=O)n1C2)COC(=O)[C@]3(O)CC [TH1332]	4220	66	2740	2330	8710	1800	6300	5300	> 100	> 1000	> 10000	> 10000	375	1820	380	2300	1.3	–	–	IC50 [14, 28]: 24 nM; T/C [19]: 159; TGI (%) ([20]; 4 weeks, 150 mg/Kg): 62.8%; Max. BWL (%) ([20]; 150 mg/kg): 0%; TGI (%) ([21]; 150 mg/Kg): 91.4%; Max. BWL (%) ([21]; 150 mg/kg): 11.4%; TGI (%) ([22]; 150 mg/Kg): 103%; Max. BWL (%) ([22]; 150 mg/kg): 1.8%; Kp [25]: 0.18; TH1338 produced under air ([27]; air, undetectable levels): less than 5 nanomolar; TH1338 produced under hypoxia ([27]; nitrogen (hypoxia), LC-MS): 70 nM; IC50 [12, 34]: 21 nM; 5d BCRP/pcDNA [12]: 0.875
CC[C@@]1(O)C(=O)OCc2c1c(N)c1n(c2=O)Cc2cc3c(N)cccc3nc2-1 [TH1386]	–	71	–	–	–	5.6	28	52	210	30	3500	680	25.6	3100	5860	26.6	4.75	141	195	–
CCc1c2c(nc3ccccc13)-c1c(NC=O)c3c(c(=O)n1C2)COC(=O)[C@]3(O)CC [TH1408]	–	66	–	–	–	9.5	40	81	650	90	5000	700	48.3	8430	6070	7.3	0.7684	242	285	–
CC[C@@]1(O)C(=O)OCc2c1c([N+](=O)[O-])c1n(c2=O)Cc2c-1nc1ccccc1c2C [TH1446]	2740	850	4960	4450	8510	574	–	–	–	–	–	–	35.4	4280	5100	2740	4.777	–	–	TGI (%) ([20]; 2 weeks, 40 mg/Kg): 29.5%; Max. BWL (%) ([20]; 40 mg/kg): 1.1%
CC[C@@]1(O)C(=O)OCc2c1c(N)c1n(c2=O)Cc2c-1nc1ccccc1c2/C=N/OC(C)(C)C [TH1499]	–	19	–	–	–	3.2	5	9	–	–	–	–	–	–	–	3.4	1.0625	217	463	TGI (%) ([20]; 2 weeks, 25 mg/Kg): 4.7%; Max. BWL (%) ([20]; 25 mg/kg): 1.8%
CC[C@@]1(O)C(=O)OCc2c1c(NC=O)c1n(c2=O)Cc2cc3ccccc3nc2-1 [TH1589]	–	59	–	–	–	–	–	–	680	110	6200	920	–	–	–	–	–	–	–	TGI (%) ([21]; 30 mg/Kg): 76%; Max. BWL (%) ([21]; 30 mg/kg): 10.4%; TGI (%) ([22]; 40 mg/Kg): 80%; Max. BWL (%) ([22]; 40 mg/kg): 0.1%
CCCc1c2c(nc3ccccc13)-c1c(N)c3c(c(=O)n1C2)COC(=O)[C@]3(O)CC [TH1651]	–	6.2	–	–	–	–	–	–	–	–	–	–	–	–	–	–	–	–	–	TGI (%) ([21]; 40 mg/Kg): 80%; Max. BWL (%) ([21]; 40 mg/kg): 5.5%; TGI (%) ([22]; 40 mg/Kg): 80%; Max. BWL (%) ([22]; 40 mg/kg): 4.8%
